20 compounds from US20070249590A1, “Substituted indolo[2,3-a]pyrrolo[3,4-c]carbazole compounds useful in treating kinase disorders” (priority 2005, published 2007) can be followed below.

The test deals with T1, JAK3 (JH1 and JH2 domain) (Homo sapiens, UniProt P52333).
T1 sequence (P52333 521-1111 limits assumed): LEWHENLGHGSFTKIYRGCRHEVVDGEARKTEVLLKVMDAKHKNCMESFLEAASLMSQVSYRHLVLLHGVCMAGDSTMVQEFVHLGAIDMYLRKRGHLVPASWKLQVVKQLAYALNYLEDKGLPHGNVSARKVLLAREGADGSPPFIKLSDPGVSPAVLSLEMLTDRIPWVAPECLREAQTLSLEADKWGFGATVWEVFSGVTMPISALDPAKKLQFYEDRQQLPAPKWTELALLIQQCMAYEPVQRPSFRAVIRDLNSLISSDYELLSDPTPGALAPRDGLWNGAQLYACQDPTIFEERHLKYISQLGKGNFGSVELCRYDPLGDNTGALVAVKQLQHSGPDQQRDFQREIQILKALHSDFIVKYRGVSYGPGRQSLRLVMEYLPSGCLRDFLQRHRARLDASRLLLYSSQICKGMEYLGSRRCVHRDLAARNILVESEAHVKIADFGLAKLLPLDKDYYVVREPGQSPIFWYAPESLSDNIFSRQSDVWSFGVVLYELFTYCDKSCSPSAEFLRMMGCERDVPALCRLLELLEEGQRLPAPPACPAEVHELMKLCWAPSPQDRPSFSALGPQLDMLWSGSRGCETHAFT
In words: JAK3 Kinase Assay (ELISA of peptide substrate phosphorylation). Format: biochemical. As to conditions: purified JAK3 enzyme, 10 μM ATP, biotinylated peptide substrate, 1 hour at room temperature. Here is the method:
JAK3 enzyme activity was assayed relative to enzyme phosphorylation using the method described herein.
Sf21 cells derived from the ovarian tissue of the fall armyworm Spodotera frugiperda were obtained from Pharmingen (San Diego, Calif.) and maintained at a temperature of about 26-28° C. in 1 l Bellco spinner flasks at 60-90 rpm. Cell viability was maintained at 95-100%, as determined by a tryptan blue dye exclusion test.
Sf21 cells were infected with a baculovirus expression vector for JAK3 (JH1 and JH2 domain). After 48 hours of infection, cells were harvested and lysed in Tris-saline (pH 7.6) containing 2% NP-40 and a combination of protease inhibitors (Aprotinin, Pepstatin A, Pefabloc, E-64, Leupeptin, and Benzamidine) on ice for 45 minutes.
The JAK3 enzyme was purified from the lysate using glutathione sepharose beads and the enzyme activity was assessed in Costar flat bottom EIA/RIA 96 well plates. The plates were coated with Neutravidin (110 μL) (Pierce Neutravidin Biotin-binding Protein 31000; 1 mg/mL 1:100) diluted in PBS for 1 hour at room temperature. The plates were washed with PBS-0.1% Tween (3 times) to remove unbound Neutravidin, then 1% BSA (150 NIL) in PBS was added to each well to block non-specific binding. The plates was incubated for 1 hour at room temperature and stored at −80° C. until use.
JAK3 enzyme solution (48 μL) in 1.25×TK buffer (62.5 mM HEPES pH 7.5, 12.5 mM MgCl2) containing DTT (42 mM) (Sigma, St. Louis, Mo.) was added to each well of a polypropylene 96 well plate.
A test compound (5 μL) diluted in DMSO (48 μL) and biotinylated peptide enzyme substrate (5 μg diluted in TK buffer containing 10 μM ATP) were added to each well using the double dispense feature of a multichannel electronic biohit. Control wells received DMSO vehicle (5 μL). The contents of the wells were mixed for approximately 8 seconds using a multitube vortexer and the reaction mixture was incubated for 1 hour at room temperature.
After incubation, an aliquot of reaction mixture (90 μL) was transferred into a washed Neutravidin coated plate. The plate was incubated for 15 minutes at room temperature and washed 3 times with PBS-T. PY99 anti-phosphotyrosine antibody (100 μL/well) (Santa Cruz #sc-7020HRP diluted 1:6000 in 1× antibody buffer) was added into each well and the plate was incubated for 40 minutes at room temperature. The antibody buffer contained 10% BSA, 100 mM Tris (pH 7.5), 1M NaCl and 1% Tween 20. The plate washed 3 times with PBS-T, then TMB (100 pLXSigma, St. Louis, Mo.) was added to the each well. The plate was incubated for another 40 mins at room temperature in the dark. The reaction was stopped by the addition of 1M H2SO4 (50 μL/well) and the optical density was read at 450/650 nm.
Test compounds were assayed in triplicate at 16 concentrations at half-log dilutions starting at 200 μM. A maximum and minimum signal for the assay was determined on each plate. The percent inhibition of a test compound was calculated according to the formula [formula]
For a series of test concentrations, the IC50 was derived by graphing percent inhibition against the log of the concentrations tested for a given compound. For those compounds without an IC50, the percent inhibition results are shown at a test concentration of 1 μM.
For orientation: IC50 means the concentration that inhibits the measured activity by half. With `O=C1NC(=O)c2c1c1c3ccccc3n3c1c1c2c2ccccc2n1CC(OC(=O)N1CCN(CCc2ccccc2)CC1)CC3` (centres unmarked) [Cpd 65, 12,13-(2-{[4-(2-phenyl-ethyl)piperazin-1-yl]carbonyloxy}-butan-1,4-yl)-12,13-dihydro-5,7-dioxo-6H-indolo[2,3-a]pyrrolo[3,4-c]carbazole], the IC50 is 1000 nM.

`CN(C)[C@@H]1CCN(C(=O)OC2CCn3c4ccccc4c4c5c(c6c7ccccc7n(c6c43)C2)C(=O)NC5=O)C1` (stereo partly drawn) [Cpd 74, 12,13-(2-{[(3R)-3-dimethylamino-pyrrolidin-1-yl]carbonyloxy}-butan-1,4-yl)-12,13-dihydro-5,7-dioxo-6H-indolo[2,3-a]pyrrolo[3,4-c]carbazole]: the IC50 is 14 nM.

As to `O=C1NC(=O)c2c1c1c3ccccc3n3c1c1c2c2ccccc2n1CC(O)(C(=O)NC1CCOC1=O)C(O)C3` (centres unmarked) [Cpd 122, 12,13-{2-[(2-oxo-tetrahydro-furan-3-yl)carbamoyl]-2,3-dihydroxy-butan-1,4-yl}-12,13-dihydro-5,7-dioxo-6H-indolo[2,3-a]pyrrolo[3,4-c]carbazole], the IC50 is 63 nM.

On to `CC1(C)O[C@H]2Cn3c4ccccc4c4c5c(c6c7ccccc7n(c6c43)C[C@@H]2O1)C(=O)NC5` [Cpd 16, 12,13-[(4S,5S)-2,2-dimethyl-[1,3]dioxolo[4,5-b]butan-1,4-yl]-6,7,12,13-tetrahydro-5-oxo-5H-indolo[2,3-a]pyrrolo[3,4-c]carbazole], for which the IC50 came to 105 nM.

`O=C(O)/C=C/c1ccc2c(c1)c1c3c(c4c5ccccc5n5c4c1n2CC(CO)C5)CNC3=O` (centres unmarked) [Cpd 218, 3-[(2E)-2-carboxy-ethenyl]-12,13-(2-hydroxymethyl-propan-1,3-yl)-6,7,12,13-tetrahydro-5-oxo-5H-indolo[2,3-a]pyrrolo[3,4-c]carbazole]: the IC50 was determined as 686 nM.

For `O=C1NC(=O)c2c1c1c3cc(-c4cccnc4)ccc3n3c1c1c2c2ccccc2n1CC(O)CC3` (centres unmarked) [Cpd 32, 3-pyridin-3-yl-12,13-(2-hydroxy-butan-1,4-yl)-12,13-dihydro-5,7-dioxo-6H-indolo[2,3-a]pyrrolo[3,4-c]carbazole], the IC50 turned out to be 35 nM.

As to `O=C1NC(=O)c2c1c1c3ccccc3n3c1c1c2c2ccccc2n1CC(OC(=O)N1CCN(C(c2ccccc2)c2ccccc2)CC1)CC3` (centres unmarked) [Cpd 62, 12,13-{2-[(4-benzhydryl-piperazin-1-yl)carbonyloxy]-butan-1,4-yl}-12,13-dihydro-5,7-dioxo-6H-indolo[2,3-a]pyrrolo[3,4-c]carbazole], the IC50 stood at 496 nM.

In the case of `O=C1NCc2c1c1c3ccccc3n3c1c1c2c2ccccc2n1CC(O)(CO)C3` (centres unmarked) [Cpd 25, 12,13-(2-hydroxy-2-hydroxymethyl-propan-1,3-yl)-6,7,12,13-tetrahydro-5-oxo-5H-indolo[2,3-a]pyrrolo[3,4-c]carbazole], the IC50 stood at 29 nM.

For `O=C1NCc2c1c1c3cc(CN4CCOCC4)ccc3n3c1c1c2c2ccccc2n1CC(O)C(O)C3` (centres unmarked) [Cpd 194, 3-(morpholin-4-ylmethyl)-12,13-(2,3-dihydroxy-butan-1,4-yl)-6,7,12,13-tetrahydro-5-oxo-5H-indolo[2,3-a]pyrrolo[3,4-c]carbazole], the IC50 was 503 nM.

For the compound `O=C(NCCc1ccccn1)OCC1Cn2c3ccccc3c3c4c(c5c6ccccc6n(c5c32)C1)C(=O)NC4` (centres unmarked) [Cpd 160, 12,13-{2-[(2-pyridin-2-yl-ethyl)carbamoyloxymethyl]-propan-1,3-yl}-6,7,12,13-tetrahydro-5-oxo-5H-indolo[2,3-a]pyrrolo[3,4-c]carbazole], the IC50 was greater than 200 nM.

For `CN1CCN(CC(=O)Nc2ccc3c(c2)c2c4c(c5c6ccccc6n6c5c2n3CC(O)C(O)C6)CNC4=O)CC1` (centres unmarked) [Cpd 205, 3-{[(4-methyl-piperazin-1-yl)methylcarbonyl]amino}-12,13-(2,3-dihydroxy-butan-1,4-yl)-6,7,12,13-tetrahydro-5-oxo-5H-indolo[2,3-a]pyrrolo[3,4-c]carbazole], the IC50 was determined as 42 nM.

On to `CN1CCC(NCc2ccc3c(c2)c2c4c(c5c6ccccc6n6c5c2n3CC(O)C(O)C6)CNC4=O)CC1` (centres unmarked) [Cpd 195, 3-[(1-methyl-piperidin-4-yl)aminomethyl]-12,13-(2,3-dihydroxy-butan-1,4-yl)-6,7,12,13-tetrahydro-5-oxo-5H-indolo[2,3-a]pyrrolo[3,4-c]carbazole], for which the IC50 was 284 nM.

Take `COCCNCc1ccc2c(c1)c1c3c(c4c5ccccc5n5c4c1n2CC(O)C(O)C5)CNC3=O` (centres unmarked) [Cpd 198, 3-[(2-methoxy-ethyl)aminomethyl]-12,13-(2,3-dihydroxy-butan-1,4-yl)-6,7,12,13-tetrahydro-5-oxo-5H-indolo[2,3-a]pyrrolo[3,4-c]carbazole]: the IC50 turned out to be 351 nM.

For the compound `Cc1ccc(CNC(=O)OC2CCn3c4ccccc4c4c5c(c6c7ccccc7n(c6c43)C2)C(=O)NC5=O)cc1` (centres unmarked) [Cpd 45, 12,13-{2-[(4-methyl-benzyl)carbamoyloxy]-butan-1,4-yl}-12,13-dihydro-5,7-dioxo-6H-indolo[2,3-a]pyrrolo[3,4-c]carbazole], the IC50 is 61 nM.

For `CN(C)CCNC(=O)/C=C/c1ccc2c(c1)c1c3c(c4c5ccccc5n5c4c1n2CC(CO)C5)CNC3=O` (centres unmarked) [Cpd 222, 3-{(2E)-2-[(2-dimethylamino-ethyl)carbamoyl]ethenyl}-12,13-(2-hydroxymethyl-propan-1,3-yl)-6,7,12,13-tetrahydro-5-oxo-5H-indolo[2,3-a]pyrrolo[3,4-c]carbazole], the IC50 was determined as 237 nM.

As for `Nc1ccc2c(c1)c1c3c(c4c5ccccc5n5c4c1n2CC(O)C(O)C5)CNC3=O` (centres unmarked) [Cpd 192, 3-amino-12,13-(2,3-dihydroxy-butan-1,4-yl)-6,7,12,13-tetrahydro-5-oxo-5H-indolo[2,3-a]pyrrolo[3,4-c]carbazole], the IC50 was 7 nM.

Regarding `O=C1NCc2c1c1c3ccccc3n3c1c1c2c2ccccc2n1CC(O)(COC(=O)N1CCN(c2ccc(O)cc2)CC1)C3` (centres unmarked) [Cpd 137, 12,13-(2-hydroxy-2-{[4-(4-hydroxy-phenyl)piperazin-1-yl]carbonyloxymethyl}-propan-1,3-yl)-6,7,12,13-tetrahydro-5-oxo-5H-indolo[2,3-a]pyrrolo[3,4-c]carbazole], the IC50 amounted to 175 nM.

As for `COc1ccccc1CNC(=O)OCC1(O)Cn2c3ccccc3c3c4c(c5c6ccccc6n(c5c32)C1)C(=O)NC4` (centres unmarked) [Cpd 174, 12,13-{2-hydroxy-2-[(2-methoxy-benzyl)carbamoyloxymethyl]-propan-1,3-yl}-6,7,12,13-tetrahydro-5-oxo-5H-indolo[2,3-a]pyrrolo[3,4-c]carbazole], the IC50 was 166 nM.

Turning to `CC(C)NC(=O)OC1Cn2c3ccccc3c3c4c(c5c6ccccc6n(c5c32)CC1O)C(=O)NC4=O` (centres unmarked) [Cpd 85, 12,13-[2-(prop-2-yl-carbamoyloxy)-3-hydroxy-butan-1,4-yl]-12,13-dihydro-5,7-dioxo-6H-indolo[2,3-a]pyrrolo[3,4-c]carbazole], the IC50 was 14 nM.

With `Cc1ccc(CNC(=O)OC2Cn3c4ccccc4c4c5c(c6c7ccccc7n(c6c43)CC2O)C(=O)NC5=O)o1` (centres unmarked) [Cpd 86, 12,13-(2-{[(5-methyl-furan-2-yl)methyl]carbamoyloxy}-3-hydroxy-butan-1,4-yl)-12,13-dihydro-5,7-dioxo-6H-indolo[2,3-a]pyrrolo[3,4-c]carbazole], the IC50 was determined as 33 nM.
